Data from US5100910A, “Aryl substituted tetrazole derivatives, and application thereof in therapeutics” (Delalande S.A., priority 1988, dated 1992).

Experiments:
MAO-B = target: T1, MAO-B (Rattus norvegicus, UniProt P19643); experiment: In vitro inhibition of monoamine oxidase B (substrate phenylethylamine, PEA; mitochondrial suspension of rat brain); assay type: biochemical; details: for IC50: PEA substrate, 20 min preincubation, reaction 10 min
T1 construct: using, as enzyme source, a mitochrondrial suspension of the brain of a rat; from tissue; host or cells: rat brain, mitochondrial suspension
T1 sequence (P19643 1-520): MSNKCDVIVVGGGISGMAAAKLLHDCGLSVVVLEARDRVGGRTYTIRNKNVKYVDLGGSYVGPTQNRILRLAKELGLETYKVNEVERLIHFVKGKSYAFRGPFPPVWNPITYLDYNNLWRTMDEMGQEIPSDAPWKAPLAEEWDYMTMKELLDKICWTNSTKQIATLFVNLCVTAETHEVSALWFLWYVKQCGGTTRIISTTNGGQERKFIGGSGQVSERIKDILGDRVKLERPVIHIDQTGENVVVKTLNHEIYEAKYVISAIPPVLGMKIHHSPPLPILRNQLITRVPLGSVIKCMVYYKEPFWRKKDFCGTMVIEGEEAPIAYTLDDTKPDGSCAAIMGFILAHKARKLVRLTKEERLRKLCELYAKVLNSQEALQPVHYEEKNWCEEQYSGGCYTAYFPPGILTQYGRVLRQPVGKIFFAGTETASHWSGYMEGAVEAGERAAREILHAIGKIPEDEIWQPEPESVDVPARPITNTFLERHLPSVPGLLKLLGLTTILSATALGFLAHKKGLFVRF
Method: The quantitative determination of the MAO, activity was made up by using, as enzyme source, a mitochrondrial suspension of the brain of a rat. The standard determination consists in preincubating the enzyme for 20 minutes in the absence then in the presence of the inhibitors. […] The operating method used is that of the protocol of P. C. Baker, Dev. Biol. 14, 267 (1966). The results expressed in terms of CI50 (50% inhibiting concentration) obtained with a certain number of derivatives (I) are shown in tables VII and VIII hereafter.

MAO-A = target: T2, MAO-A (Rattus norvegicus, UniProt P21396); experiment: In vitro inhibition of monoamine oxidase A (substrate serotonine, 5-HT; mitochondrial suspension of rat brain); assay type: biochemical; details: 5-HT substrate; for IC50: Table VII, 20 min preincubation, reaction 40 min; for inhibition at 1 µM: read-out: % of inhibition of MAO-A at a concentration of 10^-6 M, Table VIII, at a concentration of 10^-6 M
T2 construct: using, as enzyme source, a mitochrondrial suspension of the brain of a rat; from tissue; host or cells: rat brain, mitochondrial suspension
T2 sequence (P21396 1-526): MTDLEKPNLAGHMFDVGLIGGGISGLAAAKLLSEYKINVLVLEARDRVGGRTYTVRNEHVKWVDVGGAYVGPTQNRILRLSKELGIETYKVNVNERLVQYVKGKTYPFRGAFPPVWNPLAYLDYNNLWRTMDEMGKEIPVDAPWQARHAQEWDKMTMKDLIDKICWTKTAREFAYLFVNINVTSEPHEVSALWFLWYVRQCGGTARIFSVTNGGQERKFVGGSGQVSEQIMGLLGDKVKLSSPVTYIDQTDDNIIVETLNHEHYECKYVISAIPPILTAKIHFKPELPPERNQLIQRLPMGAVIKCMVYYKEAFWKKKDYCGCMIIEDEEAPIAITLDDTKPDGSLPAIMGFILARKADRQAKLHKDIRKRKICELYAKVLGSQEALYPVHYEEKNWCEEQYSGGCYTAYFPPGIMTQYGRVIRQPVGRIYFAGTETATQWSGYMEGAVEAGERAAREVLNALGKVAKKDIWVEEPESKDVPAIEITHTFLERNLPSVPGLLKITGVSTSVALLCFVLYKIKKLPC
Method: The quantitative determination of the MAO, activity was made up by using, as enzyme source, a mitochrondrial suspension of the brain of a rat. The standard determination consists in preincubating the enzyme for 20 minutes in the absence then in the presence of the inhibitors. The activities are determined by using respectively serotonine (5-HT) and phenylethylamine (PEA) as substrates of the MAO-A and of MAO-B, the reaction times being 40 minutes with 5-HT and 10 minutes with PEA. The operating method used is that of the protocol of P. C. Baker, Dev. Biol. 14, 267 (1966).
The results expressed in terms of CI50 (50% inhibiting concentration) obtained with a certain number of derivatives (I) are shown in tables VII and VIII hereafter.

mice = details: mouse, in vivo, 1500 mg/kg

SMILES | IC50 (MAO-B; Table VII) [nM] | inhibition at 1 µM (MAO-A) [%] | IC50 (MAO-B; Table VIII) [nM] | other results
N#CCCCn1nnc(-c2ccccc2)n1 [5-phenyl 2-tetrazole butyronitrile, reference compound] |  |  |  | pharmacological activity: selective inhibition of MAO-B (MAO-B): selective inhibitiopn of the monoamine oxidase of type B (MAO-B)
N#CCCCCn1nnc(-c2ccccc2)n1 [5-phenyl 2-tetrazole valeronitrile, reference compound] |  |  |  | pharmacological activity: selective inhibition of MAO-B (MAO-B): selective inhibitiopn of the monoamine oxidase of type B (MAO-B)
N#CCCn1nnc(-c2ccc(OCc3cccc(Cl)c3)cc2)n1 [Code No. 1, 5-[4-(3-chlorobenzyloxy)phenyl] 2-tetrazole propanenitrile] | 2.2 |  |  | IC50 (MAO-A): 150000 nM; toxicity after oral administration (mice): no toxicity was observed
N#CCCn1nnc(-c2ccc(OCc3ccccc3)cc2)n1 [Code No. 7] | 2.3 |  |  | IC50 (MAO-A): 86000 nM; toxicity after oral administration (mice): no toxicity was observed
N#CCCn1nnc(-c2ccc(-c3ccccc3)cc2)n1 [compound 13] |  |  |  | IC50 (MAO-A): 7800 nM
OCCn1nnc(-c2ccc(OCc3ccccc3)cc2)n1 [compound 17] |  |  |  | toxicity after oral administration (mice): no toxicity was observed
OCCn1nnc(-c2ccc(OCc3cccc(Cl)c3)cc2)n1 [compound 19] |  |  |  | toxicity after oral administration (mice): no toxicity was observed
Cc1ccc(COc2ccc(-c3nnn(CC#N)n3)cc2)cc1 [compound 31] |  |  | 1600 | 
Cc1ccc(COc2ccc(-c3nnn(CCC#N)n3)cc2)cc1 [compound 32] | 570 |  |  | 
Cc1cccc(COc2ccc(-c3nnn(CCC#N)n3)cc2)c1 [compound 35] |  | 5 | 200 | 
Cc1ccccc1COc1ccc(-c2nnn(CC#N)n2)cc1 [compound 37] |  | 10 | 160 | 
COc1ccc(COc2ccc(-c3nnn(CCC#N)n3)cc2)cc1 [compound 41] |  | 9 | 3400 | 
COc1cccc(COc2ccc(-c3nnn(CCC#N)n3)cc2)c1 [compound 44] |  | 0 | 400 | 
N#CCn1nnc(-c2ccc(OCc3ccc(F)cc3)cc2)n1 [compound 46] |  | 6 | 170 | 
N#CCCn1nnc(-c2ccc(OCc3ccc(F)cc3)cc2)n1 [compound 47] |  | 2 | 210 | 
Cc1ccc(COc2ccc(-c3nnnn3CC#N)cc2)cc1 [compound 50] |  | 12 | 15 | 
COc1ccc(COc2ccc(-c3nnnn3CCO)cc2)cc1 [compound 51] | 890 |  | 900 | 
N#CCn1nnnc1-c1ccc(OCc2ccc(F)cc2)cc1 [compound 52] |  | 15 | 24 | 
OCCn1nnnc1-c1ccc(OCc2ccc(F)cc2)cc1 [compound 53] |  | 3 | 360 | 
N#CCCn1nc(-c2ccc(OCc3ccccc3)cc2)oc1=O [compound 54] | 6.4 |  |  | 
N#CCCn1nc(-c2ccc(OCc3ccccc3)cc2)oc1=S [compound 55] | 9.3 |  |  | 
N#CCCn1nc(-c2ccc(OCc3ccccc3)cc2)sc1=O [compound 56] | 16 |  |  | 
N#CCCn1nc(-c2ccc(OCc3ccccc3)cc2)sc1=S [compound 57] | 62 |  |  | 
OCCn1nnnc1-c1ccc(OCc2ccccc2I)cc1 [compound 58] |  | 3 | 3600 | 
N#CCn1nnnc1-c1ccc(OCc2ccccc2)cc1 [compound 59] |  | 4 | 67 | 
Cc1ccccc1COc1ccc(-c2nnnn2CCC#N)cc1 [compound 60] |  | 17 | 480 | 
Cc1cccc(COc2ccc(-c3nnnn3CCC#N)cc2)c1 [compound 61] |  | 1 | 270 | 

Further lines, with some results ahead:

IC50 (MAO-B; Table VII) [nM] | inhibition at 1 µM (MAO-A) [%] | IC50 (MAO-B; Table VIII) [nM] | SMILES | other results
1200 |  |  | N#CCCCn1nnc(-c2ccc(-c3ccccc3)cc2)n1 [compound 14] | IC50 (MAO-A): 9600 nM
5400 |  |  | N#CCCCCCCn1nnc(-c2ccc(-c3ccccc3)cc2)n1 [compound 16] | IC50 (MAO-A): 46000 nM
5.5 |  |  | OCCn1nnc(-c2ccc(OCc3ccccc3Cl)cc2)n1 [compound 18] | IC50 (MAO-A): 88000 nM
8 |  |  | OCCn1nnc(-c2ccc(OCc3ccc(Cl)cc3)cc2)n1 [compound 20] | IC50 (MAO-A): 60000 nM
24 |  |  | OCCn1nnc(-c2ccc(OCc3ccc(Cl)c(Cl)c3)cc2)n1 [compound 23] | IC50 (MAO-A): 140000 nM
16400 |  |  | OCCCCCCn1nnc(-c2ccc(-c3ccccc3)cc2)n1 [compound 27] | IC50 (MAO-A): 80000 nM
 | 3 | 100 | N#CCn1nnc(-c2ccc(OCc3ccccc3)cc2)n1 [compound 29] | 
1600 |  |  | COCn1nnc(-c2ccc(OCc3ccccc3)cc2)n1 [compound 30] | 
 | 0 | 8000 | Cc1ccc(COc2ccc(-c3nnn(CCO)n3)cc2)cc1 [compound 33] | 
 | 2 | 300 | Cc1cccc(COc2ccc(-c3nnn(CCO)n3)cc2)c1 [compound 36] | 
 | 6 | 110 | Cc1ccccc1COc1ccc(-c2nnn(CCC#N)n2)cc1 [compound 38] | 
 | 3 | 290 | Cc1ccccc1COc1ccc(-c2nnn(CCO)n2)cc1 [compound 39] | 
4700 |  |  | COc1ccc(COc2ccc(-c3nnn(CCO)n3)cc2)cc1 [compound 42] | 
 | 7 | 800 | COc1cccc(COc2ccc(-c3nnn(CCO)n3)cc2)c1 [compound 45] | 
 | 2 | 270 | OCCn1nnc(-c2ccc(OCc3ccc(F)cc3)cc2)n1 [compound 48] | 
 | 15 | 280 | CN(C)CCn1nnc(-c2ccc(OCc3ccccc3)cc2)n1 [compound 64] | 
 | 4 | 90 | BrCCn1nnc(-c2ccc(OCc3ccccc3)cc2)n1 [compound 65] | 
 | 3.7 | 1500 | CC(=O)NCCn1nnc(-c2ccc(OCc3ccccc3)cc2)n1 [compound 66] | 
 | 6 | 70 | NCCn1nnc(-c2ccc(OCc3ccccc3)cc2)n1 [compound 68] | 
